The source of these data is patent publication US20040127569A1, “Methods for treatment and prevention of gastrointestinal conditions” (priority 2002, published 2004).

In series [1] the target is i-NOS (Homo sapiens, UniProt P35228). The experiment in a line: i-NOS inhibition, comparison with NIL amides. In kind it is biochemical.
The subject of series [2] is Human Cartilage. In words: Human cartilage explant assay (nitrite production, IL-1β induced). In kind it is cell-based. The following applies: inhibition of nitrite production, IL-1β stimulated explants. The protocol: Human Cartilage Explant Assay
Bone pieces are rinsed twice with Dulbecco's Phosphate Buffered Saline (GibcoBRL) and once with Dulbecco's Modified Eagles Medium (GibcoBRL) and placed into a petri dish with phenol red free Minimum Essential Medium (MEM) (GibcoBRL). Cartilage was cut into small explants of approximately 15-45 mg in weight and one or two explants per well are placed into either 96 or 48 well culture plates with 200-500 μL of culture media per well. The culture media was either a custom modification of Minimum Essential Medium(Eagle) with Earle's salts (GibcoBRL) prepared without L-Arginine, without L-Glutamine and without phenol red or a custom modification of serumless Neuman and Tytell (GibcoBRL) medium prepared without L-arginine, without insulin, without ascorbic acid, without L-glutamine and without phenol red. Both are supplemented before use with 100 μM L-Arginine (Sigma), 2 mM L-glutamine, 1×HL-1 supplement (BioWhittaker), […] ascorbic acid (Sigma) and 150 pg/ml recombinant human IL-1β (RD Systems) to induce nitric oxide synthase. Compounds are then added in 10 μL aliquots and the explants incubated at 37° C. with 5% CO2 for 18-24 hours. The day old supernatant is then discarded and replaced with fresh culture media containing recombinant human IL-1β and compound and incubated for another 20-24 hours. […] All samples are done in quadruplicate. Unstimulated controls are cultured in media in the absence of recombinant human IL-1β. IC50 values (Table I) are determined from plotting the percent inhibition of nitrite production at six different concentrations of inhibitor.

The test system of series [3] is LPS-induced increase in plasma nitrite/nitrate levels. The experiment in a line: In vivo assay: endotoxin-treated rats, plasma nitrite/nitrate. On the set-up: species or system rat. To be noted: oral administration, plasma nitrite/nitrate 5 hours post-treatment. The protocol: Plasma nitrite/nitrate levels can be determined 5 hours post-treatment.
Series [4] deals with T1, hiNOS (Homo sapiens, UniProt P35228).
T1 construct: made in house; host or cells: Sf9 insect cells (baculovirus vector)
In words: Assay for time dependent inhibition, hiNOS. The format is biochemical. To be noted: 60 min preincubation. The protocol: Assay for Time Dependent Inhibition
Aliquots (10 μL) are removed at 0, 10, 21 and 60 minutes and immediately added to a citrulline assay enzyme reaction mixture containing L-[2,3-^3H]-arginine and a final L-arginine concentration of 30 μM in a final volume of 100 μL. The reaction is allowed to proceed for 15 minutes at 37° C. and terminated by addition of stop buffer and chromatography with Dowex 50W X-8 cation exchange ion exchange resin as described for the citrulline NOS assay. The % inhibition of NOS activity by an inhibitor was taken as the percent inhibition in activity compared to control enzyme preincubated for the same time in the absence of inhibitor.

Setting [5] is: Rattus norvegicus, read-out: ED50.

Structures can show the parent of a compound that is named as a salt. Where two headings read alike, the source gives them in different places. Bounds are passed on as bounds.

Chain of i-NOS (P35228 whole entry): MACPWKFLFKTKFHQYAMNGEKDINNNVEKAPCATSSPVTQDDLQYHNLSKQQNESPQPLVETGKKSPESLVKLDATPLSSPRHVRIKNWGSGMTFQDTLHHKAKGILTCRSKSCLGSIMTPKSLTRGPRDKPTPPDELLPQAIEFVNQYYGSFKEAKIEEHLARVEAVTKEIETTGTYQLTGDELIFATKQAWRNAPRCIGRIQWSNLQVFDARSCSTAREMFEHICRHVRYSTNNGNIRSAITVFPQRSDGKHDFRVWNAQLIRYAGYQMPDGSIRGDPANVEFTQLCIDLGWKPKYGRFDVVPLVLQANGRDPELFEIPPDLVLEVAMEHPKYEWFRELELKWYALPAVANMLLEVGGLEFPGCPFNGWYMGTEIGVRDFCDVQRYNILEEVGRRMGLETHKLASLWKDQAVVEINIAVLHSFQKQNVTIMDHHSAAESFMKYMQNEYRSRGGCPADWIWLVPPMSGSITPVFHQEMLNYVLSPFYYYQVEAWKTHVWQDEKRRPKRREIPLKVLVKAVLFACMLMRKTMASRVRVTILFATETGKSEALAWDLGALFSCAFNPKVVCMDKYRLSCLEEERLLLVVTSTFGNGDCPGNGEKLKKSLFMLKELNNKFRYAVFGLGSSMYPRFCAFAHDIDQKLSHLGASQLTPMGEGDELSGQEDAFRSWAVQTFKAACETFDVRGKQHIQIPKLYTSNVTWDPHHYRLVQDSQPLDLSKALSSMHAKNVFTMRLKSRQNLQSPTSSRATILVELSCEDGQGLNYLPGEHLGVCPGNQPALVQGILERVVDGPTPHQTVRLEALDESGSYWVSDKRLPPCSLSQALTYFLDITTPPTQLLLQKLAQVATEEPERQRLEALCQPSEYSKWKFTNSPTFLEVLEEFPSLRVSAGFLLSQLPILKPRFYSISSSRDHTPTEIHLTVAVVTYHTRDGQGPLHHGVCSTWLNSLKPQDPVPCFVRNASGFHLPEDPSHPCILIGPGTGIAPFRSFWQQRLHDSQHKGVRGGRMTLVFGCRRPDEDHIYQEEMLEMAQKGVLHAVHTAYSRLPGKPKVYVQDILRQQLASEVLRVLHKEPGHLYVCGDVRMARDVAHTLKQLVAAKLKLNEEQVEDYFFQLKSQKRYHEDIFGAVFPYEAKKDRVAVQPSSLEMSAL

As for “2S-amino-6-[(1-iminoethyl)amino]-N-(1H-tetrazol-5-yl)hexanamide, hydrate, dihydrochloride [Example 1]”, in series [1] (compared with NIL amide or NIL dimethylamide), the “i-NOS selectivity relative to NIL amide or NIL dimethylamide” value was “more selective”.

As usually defined, the IC50 is the concentration needed to halve the response being measured. A lower IC50 goes with higher potency. Regarding `CC(=N)NCC(F)=CCC[C@H](N)C(=O)O` (mixture of isomers) [Example B, (2S,5E/Z)-2-amino-6-fluoro-7-[(1-iminoethyl)amino]-5-heptenoic acid, dihydrochloride], half-maximal inhibition in series [2] (Homo sapiens) (IC50) required 200 nM.

In general, ED50 refers to the midpoint of the dose-response relation. `CC(=N)NC/C(F)=C\CC[C@H](N)C(=O)O` [Example A, (2S,5E)-2-amino-6-fluoro-7-[(1-iminoethyl)amino]-5-heptenoic acid, dihydrochloride, monohydrate] registered a half-inhibitory concentration (IC50) in series [2] (Homo sapiens) of 100 nM. For the same molecule, the ED50 was less than 0.1 mg/kg in series [3] (setting [5]) and less than 0.1 mg/kg in series [3] (dihydrochloride, monohydrate).

For the molecule `CC(=N)NC/C(F)=C/CC[C@H](N)C(=O)O` [Example D, (2S,5Z)-2-amino-6-fluoro-7-[(1-iminoethyl)amino]-5-heptenoic acid, trihydrochloride, dihydrate], the midpoint of inhibition in series [2] (Homo sapiens), the IC50, lay at 2500 nM. The ED50 in series [3] (setting [5]) is greater than 10 mg/kg.

As a reminder, the melting point is the temperature of the solid-liquid transition. As to `CC(=NO)NC/C(F)=C\CC[C@H](N)C(=O)O` [Example G, (2S,5E)-2-amino-6-fluoro-7-[(1-hydroximinoethyl)amino]-5-heptenoic acid], the melting point was in the range of 198 to 200 °C. In addition, the ED50 in series [3] (setting [5]) is less than 0.1 mg/kg.

As for `CC(=N)NC/C(F)=C\CC[C@H](N)C(=O)Nc1nnn[nH]1` [Example H, (2S,5E)-2-amino-6-fluoro-7-[(1-iminoethyl)amino]-N-(1H-tetrazol-5-yl) 5-heptenamide, dihydrochloride], in series [3] (setting [5]), the ED50 was less than 0.3 mg/kg.

In series [2] (Homo sapiens), `CC(=N)NC/C(F)=C\CC[C@](C)(N)C(=O)O.Cl.Cl` [Example HH, (2S,5E)-2-amino-2-methyl-6-fluoro-7-[(1-iminoethyl)amino]-5-heptenoic acid, dihydrochloride] displayed an IC50 of 400 nM. Moreover, the ED50 in series [3] (setting [5]) came to 0.4 mg/kg.

For `COC[C@](N)(CSCCNC(C)=N)C(=O)O` [Example J, 2-[[[2-[(1-Iminoethyl)amino]ethyl]thio]methyl]-O-methyl-D-serine, dihydrochloride], the IC50 in series [2] amounted to 8200 nM.

`CC(=N)NC/C=C\CC[C@](C)(N)C(=O)O` [Example LL, (2S,5Z)-7-acetimidoylamino-2-amino-2-methyl-hept-5-enoic acid] gave an IC50 in series [2] (Homo sapiens) of 800 nM. For the same molecule, the median effective dose (ED50) in series [3] (setting [5]) was determined as 0.3 mg/kg.

Turning to `CC(=N)NCCCC[C@H](N)C(=O)Nc1nnn[nH]1` [Example NN, 2S-amino-6-[(1-iminoethyl)amino]-N-(1H-tetrazol-5-yl)hexanamide, hydrate, dihydrochloride], in series [1] (compared with 2S-amino-6-[(1-iminoethyl)amino]hexanamide (NIL amide) or NIL dimethylamide), the “i-NOS inhibitor potency relative to NIL amide or NIL dimethylamide” value is “more potent”.

In series [2] (Homo sapiens), `Cl.N=C1CCCC[C@H](CCCC[C@@H](N)C(=O)O)N1.O.O.O` [Example V, (αR,2S)-α-aminohexahydro-7-imino-1H-azepine-2-hexanoic acid, trihydrate hydrochloride] displayed a concentration for half-maximal inhibition (IC50) of less than 10000 nM. In series [3] (setting [5]), the ED50 is less than 3 mg/kg.

Regarding `Cl.N=C1CCCC[C@@H](CCCC[C@H](N)C(=O)O)N1.O.O.O` [Example W, (αS,2R)-α-aminohexahydro-7-imino-1H-azepine-2-hexanoic acid, trihydrate hydrochloride], the half-inhibitory concentration (IC50) in series [2] (Homo sapiens) is greater than 30000 nM. The ED50 in series [3] (setting [5]) is greater than 10 mg/kg.

With `N=C1CCCC[C@H](CCCC[C@H](N)C(=O)O)N1` [Example X, (αS,2S)-α-aminohexahydro-7-imino-1H-azepine-2-hexanoic acid, trihydrate hydrochloride], in series [2], the IC50 was less than 10000 nM.

One may read the inhibition as the percentage by which the read-out fell short of the control. A lower inhibition goes with a response near the control. Turning to `N=C1CCCC[C@H](CCCC[C@H](N)C(=O)O)N1` [Example Z, (αS,2S)-α-aminohexahydro-7-imino-1H-azepine-2-hexanoic acid, trihydrate hydrochloride], in series [2] (Homo sapiens), the IC50 was less than 10000 nM. This molecule registered an inhibition at 22 µM in series [4] of 85%.
